Assay results from patent US7906488B2, “Sphingolipids in treatment and prevention of steatosis and of steatosis or of hepatotoxicity and its sequelae” (Nederlandse Organisatie Voor …, priority 2004, dated 2011).

Key:
APOE*3Leiden mice [1] = assay: In vivo clearance of VLDL-like TG-rich emulsion particles; conditions: 1% PS diet
Description: (§1) Plasma parameters: Tail blood samples were collected in EDTA-coated cups, or in paraoxon-coated capillaries to prevent lipolysis as described in Zambon et al. 1993 (Zambon et al. 1993. J. Lipid Res. 34:1021-1028). Plasma lipid parameters were determined using commercial kits for total cholesterol (C) Chol R1 from Roche Diagnostics, Mannheim, Germany), non-esterified free fatty acids (FFA) (NEFA-C; Wako chemicals, Neuss, Germany), Total triglycerides (TG) (Triglyceride GPO-Trinder; Sigma, St. Louis, Mo.), β-hydroxybutyrate (β-HB; Sigma) and ALAT (Reflotron GPT; Roche). Serum amyloid A (SAA) was measured by ELISA (Biosource, Nivelles, Belgium) and fibrinogen by sandwich ELISA, as described in Koopman et al., 2005 (Koopman et al. 2005. Fibrinol Proteol 11:19). For lipoproteins fractionation, groupwise-pooled plasma was size-fractionated by fast protein liquid chromatography (FPLC) on a Superose 6 column (Äkta; Amersham Pharmacia Biotech, Uppsala, Sweden). Fractions were assayed for total C and TG as described. Hepatic VLDL-TG production: The rate of hepatic VLDL-TG production, de novo apoB secretion, and VLDL composition were determined in overnight-fasted mice. Mice were anaesthetized with vetranquil/fentanyl/midazolam i.p., and injected i.v. with 0.1 ml PBS containing 100 μCi Tran^35S-label™ (ICN Biomedicals, Irvine, Calif.) to measure the de novo apoB synthesis. After 30 min, the animals received a Triton WR1339 injection (Tyloxapol, Sigma; 500 mg/kg body weight in 100 μl saline) to prevent systemic lipolysis of newly-secreted hepatic VLDL-TG (Aalto-Setala et al. 1992. J. Clin. Invest 90:1889-1900.27) Blood samples were drawn at 0, 15, 30, 60, and 90 min after Triton WR1339 injection and plasma TG concentrations were determined. After 90 min, the animals were sacrificed and blood was collected by retro-orbital bleeding for isolation of VLDL. VLDL composition: VLDL particles (d<1.019) were separated from other lipoproteins in plasma by density gradient ultra-centrifugation, as described in Jong et al., 1996 (Jong et al. 1996. Arterioscler. Thromb. Vasc. Biol. 16:934-940). Protein content of the VLDL fraction was determined by Lowry's assay (Lowry et al., 1951. J. Biol. Chem. 193:265-275), and TG and total C were determined as described above. Phospholipids and free cholesterol were determined using standard commercial kits (Wako Chemicals, Neuss, Germany). The ^35S-apoB content of VLDL was measured after selective precipitation of apoB with isopropanol as described elsewhere (Li et al. 1996 J. Lipid Res. 37:210-220; Pietzsch et al. 1995. Biochim. Biophys. Acta 1254:77-88). In vivo clearance of VLDL-like TG-rich particles: To determine whether 1% PS accelerates the clearance of TG-rich lipoproteins from plasma, we used radiolabeled emulsion particles as a tool. VLDL-like emulsion particles containing 200 μCi of [^3H]triolein and 20 μCi of [^14C]cholesteryl oleate were prepared and characterized as described in Rensen et al. 1997 (Rensen et al., 1997. J. Lipid Res. 38:1070-1084). Fed mice were anaesthetized as described above and laparotomy was performed. […] After taking the last liver and blood sample, the remainder of the liver, heart, spleen, hind limb muscle, and gonadal, perirenal and intestinal white adipose tissues were harvested. Lipids were extracted overnight at 60° C. in 500 μL of Solvable™, and radioactivity was counted as described in Rensen et al., 1997 (supra). […]

APOE*3Leiden mice [2] = assay: Hepatic mRNA expression levels by RT-PCR (normalized to HPRT); assay type: in vivo; design: key to acc1 mRNA, Change / mttp mRNA, Change / dgat1 mRNA, Change / dgat2 mRNA, Change / aco mRNA, Change / ldlr mRNA, Change / apob mRNA, Change / srebp2 mRNA, Change / pparα mRNA, Change / pparγ mRNA, Change / lxrα mRNA, Change / lxrβ mRNA, Change / fxr mRNA, Change / hmgcoAred mRNA, Change / cyp7α mRNA, Change / abca1 mRNA, Change / srebp1c mRNA, Change / fas mRNA, Change: ↑, (upregulated); ↓, (downregulated); n.s., not significant
Description: as §1, with “(supra). RNA isolation and RT-PCR: Livers from 4 h-fasted mice fed 1% PS-containing diet or control Western-type diet for 5 weeks were removed immediately after sacrifice, flushed with cold 0.9% NaCl and snap frozen in liquid nitrogen. Total RNA was isolated as described by Chomczynski and Sacchi (Chomczynski, P. and Sacchi, N. 1987. Anal. Biochem. 162:156-159) by use of RNA-Bee™ (Campro Scientific, Berlin, Germany). cDNA synthesis was performed according to Bloks et al (Bloks et al., 2001. J. Lipid Res. 42:41-50).” for “(supra).”

APOE*3Leiden mice [3] = assay: Hepatic VLDL-TG production, apoB production and VLDL composition (Triton WR1339 method); assay type: in vivo; conditions: 1% PS diet
Description: as §1, with “(supra). RNA isolation and RT-PCR: Livers from 4 h-fasted mice fed 1% PS-containing diet or control Western-type diet for 5 weeks were removed immediately after sacrifice, flushed with cold 0.9% NaCl and snap frozen in liquid nitrogen. Total RNA was isolated as described by Chomczynski and Sacchi (Chomczynski, P. and Sacchi, N. 1987. Anal. Biochem. 162:156-159) by use of RNA-Bee™ (Campro Scientific, Berlin, Germany). cDNA synthesis was performed according to Bloks et al (Bloks et al., 2001. J. Lipid Res. 42:41-50).” for “(supra).”

[4] = 1% PS diet, 5 weeks, control = 100%

With `CCCCCCCCCCCCCC[C@@H](O)[C@@H](O)[C@@H](N)CO` [PS, phytosphingosine] the “Uptake of [^14C]cholesteryl oleate or [^3H]TG-derived radioactivity by peripheral muscle and adipose tissues” value (APOE*3Leiden mice [1]) was “No effects”, the “Plasma clearance of [^14C]cholesteryl oleate, t1/2” value (APOE*3Leiden mice [1]; 5 weeks, fed mice) was 39.5 ± 5.3 min and the “Serum clearance of [^3H]TG, t1/2” value (APOE*3Leiden mice [1]; 5 weeks, fed mice) was 4.7 ± 0.3 min. The “[^3H]TG uptake in the liver” value (APOE*3Leiden mice [1]; at 10 min and 20 min after injection) was “increased significantly”, the “Liver uptake of [^14C]cholesteryl oleate, change vs control” value (APOE*3Leiden mice [1]; at 20 min) was “+60%” and the “abca1 mRNA, Change” value (APOE*3Leiden mice [2]; 1% PS diet vs control) was “n.s”. For the same compound, the “acc1 mRNA, Change” value (APOE*3Leiden mice [2]; 1% PS diet vs control) was “n.s”, the “aco mRNA, Change” value (APOE*3Leiden mice [2]; 1% PS diet vs control) was “n.s” and the “apob mRNA, Change” value (APOE*3Leiden mice [2]; 1% PS diet vs control) was “n.s”. The “cyp7α mRNA, Change” value (APOE*3Leiden mice [2]; 1% PS diet vs control) was “↓”, the “dgat1 mRNA, Change” value (APOE*3Leiden mice [2]; 1% PS diet vs control) was “n.s” and the “dgat2 mRNA, Change” value (APOE*3Leiden mice [2]; 1% PS diet vs control) was “↑”. The “fas mRNA, Change” value (APOE*3Leiden mice [2]; 1% PS diet vs control) was “↑”, the “fxr mRNA, Change” value (APOE*3Leiden mice [2]; 1% PS diet vs control) was “↑” and the “hmgcoAred mRNA, Change” value (APOE*3Leiden mice [2]; 1% PS diet vs control) was “↑”. The “ldlr mRNA, Change” value (APOE*3Leiden mice [2]; 1% PS diet vs control) was “↑”, the “lxrα mRNA, Change” value (APOE*3Leiden mice [2]; 1% PS diet vs control) was “↑” and the “lxrβ mRNA, Change” value (APOE*3Leiden mice [2]; 1% PS diet vs control) was “↓”. For the same compound, the “mttp mRNA, Change” value (APOE*3Leiden mice [2]; 1% PS diet vs control) was “↑”, the “pparα mRNA, Change” value (APOE*3Leiden mice [2]; 1% PS diet vs control) was “n.s” and the “pparγ mRNA, Change” value (APOE*3Leiden mice [2]; 1% PS diet vs control) was “n.s”. The “srebp1c mRNA, Change” value (APOE*3Leiden mice [2]; 1% PS diet vs control) was “↑”, the “srebp2 mRNA, Change” value (APOE*3Leiden mice [2]; 1% PS diet vs control) was “↑” and the “abca1 hepatic mRNA level” value (APOE*3Leiden mice [2]; [4]) was 79 ± 6%. The “acc1 hepatic mRNA level” value (APOE*3Leiden mice [2]; [4]) was 138 ± 29%, the “aco hepatic mRNA level” value (APOE*3Leiden mice [2]; [4]) was 56 ± 9% and the “apob hepatic mRNA level” value (APOE*3Leiden mice [2]; [4]) was 105 ± 25%. For the same compound, the “cyp7α hepatic mRNA level” value (APOE*3Leiden mice [2]; [4]) was 7 ± 2%, the “dgat1 hepatic mRNA level” value (APOE*3Leiden mice [2]; [4]) was 112 ± 27% and the “dgat2 hepatic mRNA level” value (APOE*3Leiden mice [2]; [4]) was 185 ± 23%. The “fas hepatic mRNA level” value (APOE*3Leiden mice [2]; [4]) was 237 ± 33%, the “fxr hepatic mRNA level” value (APOE*3Leiden mice [2]; [4]) was 164 ± 58% and the “hmgcoAred hepatic mRNA level” value (APOE*3Leiden mice [2]; [4]) was 444 ± 71%. The “ldlr hepatic mRNA level” value (APOE*3Leiden mice [2]; [4]) was 209 ± 14%, the “lxrα hepatic mRNA level” value (APOE*3Leiden mice [2]; [4]) was 162 ± 13% and the “lxrβ hepatic mRNA level” value (APOE*3Leiden mice [2]; [4]) was 16 ± 8%. For the same compound, the “mttp hepatic mRNA level” value (APOE*3Leiden mice [2]; [4]) was 167 ± 5%, the “pparα hepatic mRNA level” value (APOE*3Leiden mice [2]; [4]) was 125 ± 10% and the “pparγ hepatic mRNA level” value (APOE*3Leiden mice [2]; [4]) was 119 ± 10%. For the same compound, the “srebp1c hepatic mRNA level” value (APOE*3Leiden mice [2]; [4]) was 194 ± 3%, the “srebp2 hepatic mRNA level” value (APOE*3Leiden mice [2]; [4]) was 317 ± 33% and the “VLDL particle composition: phospholipid” value (APOE*3Leiden mice [3]; 5 weeks) was 7.57 ± 1.13 μmol/mg VLDL protein. For the same compound, the “VLDL particle composition: total cholesterol” value (APOE*3Leiden mice [3]; 5 weeks) was 11.94 ± 2.16 μmol/mg VLDL protein, the “VLDL particle composition: triglycerides” value (APOE*3Leiden mice [3]; 5 weeks) was 36.93 ± 7.17 μmol/mg VLDL protein and the “VLDL total cholesterol, % Δ vs control” value (APOE*3Leiden mice [3]; 5 weeks) was −51%. The “apoB production rate, % Δ vs control” value (APOE*3Leiden mice [3]; 5 weeks) was “did not differ and n.s”, the VLDL-TG production rate (APOE*3Leiden mice [3]; 5 weeks, overnight-fasted) was 3.63 ± 0.52 μmol TG/h and the apoB production rate (APOE*3Leiden mice [3]; 5 weeks, overnight-fasted) was 13.47 ± 2.45 ×10^4 dpm/ml/h. For the same compound, the “Decrease of total C in VLDL particles vs control” value (APOE*3Leiden mice [3]; p<0.05) was 51%.
